From ChEMBL document CHEMBL1136204, “Thymidine and thymidine-5'-O-monophosphate analogues as inhibitors of Mycobacterium tuberculosis thymidylate kinase” (Bioorg Med Chem Lett, 2003) come the findings set out here.

The target in the first assay is T1, Thymidylate kinase (Mycobacterium tuberculosis, UniProt P9WKE1).
T1 sequence (P9WKE1 whole entry): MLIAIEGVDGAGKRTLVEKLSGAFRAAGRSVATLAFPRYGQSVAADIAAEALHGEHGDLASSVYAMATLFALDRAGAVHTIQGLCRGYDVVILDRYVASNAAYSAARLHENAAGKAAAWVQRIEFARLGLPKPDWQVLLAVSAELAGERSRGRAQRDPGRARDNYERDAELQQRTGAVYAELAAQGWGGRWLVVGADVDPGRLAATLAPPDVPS
As to the kind of experiment: Inhibitory activity against thymidine monophosphate kinase (TMPKmt) in Mycobacterium tuberculosis using HPLC chromatography test.
Consider `Cc1cn([C@H]2C[C@H](O)[C@@H](COP(=O)(O)OP(=O)(O)OP(=O)(O)OP(=O)(O)OP(=O)(O)OC[C@H]3O[C@@H](n4cnc5c(N)ncnc54)[C@H](O)[C@@H]3O)O2)c(=O)[nH]c1=O`, for which the Ki is 30 µM.

Another assay deals with T1, Thymidylate kinase. As to the kind of experiment: Inhibitory activity against thymidine monophosphate kinase (TMPK) in Mycobacterium tuberculosis.
On to `Cc1cn([C@H]2C[C@H](O)[C@@H](CN=[N+]=[N-])O2)c(=O)[nH]c1=O`, for which affinity was put at a Ki of 7 µM.

For the compound `C[C@@H]1CC[C@H](n2cc(Br)c(=O)[nH]c2=O)O1`, the affinity, expressed as Ki, was 5 µM.

Consider `Cc1cn([C@@H]2O[C@H](CI)[C@@H](N=[N+]=[N-])[C@H]2O)c(=O)[nH]c1=O`, for which the Ki was determined as 490 µM. Against the preceding compound, the Ki is about 98-fold higher.

As for `Cc1cn([C@@H]2O[C@H](C)[C@@H](N)[C@H]2O)c(=O)[nH]c1=O`, the affinity corresponds to a Ki of 1900 µM.

Consider `Cc1cn([C@@H]2O[C@H](CO)[C@@H](O)[C@@H]2O)c(=O)[nH]c1=O`, for which the Ki was 238 µM.

As for `Cc1cn([C@@H]2O[C@H](CO)[C@@H](O)[C@H]2F)c(=O)[nH]c1=O`, the inhibition constant Ki was found to be 122 µM.

Take `Cc1cn([C@@H]2O[C@H](COP(=O)(O)O)[C@@H](O)[C@H]2N)c(=O)[nH]c1=O`: the Ki was found to be 120 µM. The Ki values of the last two compounds are within 1.5-fold of each other.

The compound `Cc1cn([C@@H]2O[C@H](COP(=O)(O)O)[C@@H](N)[C@H]2O)c(=O)[nH]c1=O` gave a Ki of 45 µM. This Ki lies about 2.7-fold lower than the previous one.

Consider `O=c1[nH]c(=O)n([C@H]2C[C@H](O)[C@@H](COP(=O)(O)O)O2)cc1-c1cccs1`, for which the inhibition constant Ki is 270 µM.

In turn, `O=c1[nH]c(=O)n([C@H]2C[C@H](O)[C@@H](COP(=O)(O)O)O2)cc1Cc1ccccc1` had a Ki of 28 µM.

As for `O=c1[nH]c(=O)n([C@H]2C[C@H](O)[C@@H](COP(=O)(O)O)O2)cc1-c1ccco1`, the Ki was 140 µM.

The compound `Cc1cn([C@@H]2CO[C@H](COP(=O)(O)O)[C@@H](O)C2)c(=O)[nH]c1=O` came in with an inhibitory constant (Ki) of 150 µM.

In turn, `O=c1[nH]c(=O)n([C@H]2C[C@H](O)[C@@H](COP(=O)(O)O)O2)cc1CO` came in with an inhibition constant Ki of 110 µM.

In turn, `Cc1cn([C@H]2C[C@H](O)[C@@H](CN)O2)c(=O)[nH]c1=O` registered a Ki of 12 µM.

As to `Cc1cn([C@@H]2O[C@H](CO)[C@@H](N=C(N)N)[C@H]2O)c(=O)[nH]c1=O`, the Ki amounted to 140 µM. This Ki is about 12-fold higher than that of the compound before.

With `CC(=O)NC[C@H]1O[C@@H](n2cc(C)c(=O)[nH]c2=O)C[C@@H]1O`, the Ki came to 90 µM.

In turn, `Cc1cn([C@H]2C[C@H](N)[C@@H](CO)O2)c(=O)[nH]c1=O` [3-AMINO- 3-DEOXYTHYMIDINE] registered an inhibition constant Ki of 230 µM.

`O=c1[nH]c(=O)n([C@@H]2O[C@H](CO)[C@@H](O)[C@H]2O)cc1F` [5-FLUOROURIDINE]: the Ki turned out to be 521 µM.

In turn, `Cc1cn([C@H]2C[C@H](F)[C@@H](CO)O2)c(=O)[nH]c1=O` [ALOVUDINE] registered a Ki of 28 µM. Compared with the last compound, the Ki is about 19-fold lower.

Compound `C[C@H]1O[C@@H](n2cc(F)c(=O)[nH]c2=O)[C@H](O)[C@@H]1O` [DOXIFLURIDINE] returned a Ki of 560 µM.

Take `Cc1cn([C@H]2C[C@H](O)[C@@H](CO)O2)c(=O)[nH]c1=O` [DOXRIBTIMINE]: the Ki is 715 µM.

With `CCc1cn([C@H]2C[C@H](O)[C@@H](CO)O2)c(=O)[nH]c1=O` [EDOXUDINE], the Ki turned out to be 1140 µM.

For the compound `O=c1[nH]c(=O)n([C@H]2C[C@H](O)[C@@H](CO)O2)cc1C(F)(F)F` [TRIFLURIDINE], the Ki turned out to be 97 µM.
